In patent publication US20230107216A1, “PANTETHEINE DERIVATIVES AND USES THEREOF” (Comet Therapeutics, Inc., priority 2018, published 2023):
Where two headings read alike, the source gives them in different places.

Tests used:
[1] = test system: monocyte-derived M1 macrophages; assay: M1 differentiation assay (macrophage TNFα, IL6, IL10 ELISA, FACS); format: cell-based, human; conditions: Homo sapiens, Macrophage, 10 uM
Procedure, shortened: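 CD14+ human blood monocytes (100,000) differentiated 6 days with 10 ng/ml GM-CSF plus compound at 10 or 50 μM, refreshed days 2 and 4. Matured 24 h with GM-CSF, IFNγ, LPS plus compound. Supernatant TNFα, IL6, IL10 by ELISA; FACS M1 phenotype CD86+CD68+CD163−.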

HepG2 cells = assay: MitoBiogenesis In-Cell ELISA (COX-I, SDH-A); format: cell-based; conditions: Homo sapiens, 168 h, 10 uM, 7 days, read-out: % increase in Mitochondrial Biogenesis
Source text: We determined the effect of compounds of the present disclosure on the levels of two mitochondrial proteins using MitoBiogenesis™ In-Cell ELISA Kit (Abcam ab110216) according to manufacturer's instructions. The two proteins are each subunits of a different oxidative phosphorylation enzyme complex, one protein being subunit I of Complex IV (COX-1), which is mitochondrial (mt)DNA-encoded, and the other being the 70 kDa subunit of Complex II (SDH-A), which is nuclear (n)DNA-encoded. Complex IV includes several proteins which are encoded in the mitochondrion, while the proteins of Complex II are entirely encoded in the nucleus. HepG2 cells (ATCC, HB-8065) were cultured (5% CO2 at 37° C.) and plated in Poly-D-Lysine 384-Well plate (Corning, 356663) at a density of 40,000 cells/mL in 50 μL. Culture and assay media consisted of DMEM (Gibco, 11995-065) supplemented with 1% Penicillin-Streptomycin and 10% FBS (Hyclone, SV30087.03). Cells were allowed to settle for 30 min at room temperature and further incubated overnight (37° C. and 5% CO2) for adherence. Next day, 50-5 μM of the negative control Chloramphenicol (Selleck, S1677), test compounds (50-10 μM) and vehicle DMSO (0.2%) were added at the recommended volumes to the 384-well plate for 7 days without media change using a Tecan compound dispenser. All the solutions and wash buffers were prepared and dispensed according to manufacturer's volumes for a 384-well plate format. Effects of compounds on mtDNA-encoded protein expression (COX-I) and nuclear DNA-encoded mitochondrial protein expression (SDH-A) were expressed as relative signal (nm) to vehicle of a n=2 per conditions.

[2] = test system: primary fibroblasts (healthy controls and PA, MMA, BCKDK, PDH, VLCAD, LS, PC, GA, VLCFA, KSS, FXN, HD); assay: Measurement of ROS (H2DCFDA) in primary fibroblasts; format: cell-based, human; conditions: Homo sapiens, Fibroblast, BCKD GM00649, procedure Example 812, Assay Condition C
Procedure, shortened: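 Patient and healthy-control primary fibroblasts switched to supplemented DMEM 24 h before assay, then treated with compound (10 μM) plus H2DCFDA (22 μM) for 2 h (PA, MMA lines) or 24 h (other lines). Kinetic fluorescence at 492/527 nm over 60 min; only live cells analysed.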

[3] = Treg differentiation assay; format: cell-based; conditions: human
Procedure: Naïve CD4+ T cells (Stemcell, 17555) were isolated from PBMC and placed (20,000 cells/well) in 10 μg/ml anti-CD3 antibody (eBioscience, 16-0037-85) pre-coated 96-well flat bottom plate (Eppendorf, Cat #30730119) for 3 hours at 37° C. in an X-VIVO15 medium (Lonza, 04-418Q) supplemented with 15% FBS (Hyclone SV30087.03) and 1% Penicillin-Streptomycin (Hyclone, SV30010). Treg induction cocktail was added including 2 μg/ml anti-CD28 (eBioscience 16-0289-85), 20 ng/ml IL-2 (R&D, 202-IL-050) 0.2 ng/ml TGF-β1 (Peprotech, 100-21-50) in the presence of the compounds at 10 and 50 μM dose. On day 3 half of the medium, was refreshed with Treg differentiation cocktail as above and compounds (10 and 50 μM). On day 5 cells were collected and the following staining were performed: live/dead (Invitrogen, L34963), and Foxp3/Transcription Factor Staining Buffer Set (EBioscience, 00-5523-00), mouse anti-human FoxP3 (BD, 560046) or mouse IgG1, κIsotype control (BD, 555749) and analyzed by FACS (BD LSR Fortessa, 853492).

Work on `C/C=C/C(=O)SCCNC(=O)CCNC(=O)[C@H](O)C(C)(C)CO` [Compound 35, (R)—S-(2-(3-(2,4-dihydroxy-3,3-dimethylbutanamido)propanamido)ethyl) (E)-but-2-enethioate] yielded an activation at 10 µM ([1]; read-out: % Increase in IL-10 Secretion) of no less than 30%, an inhibition at 10 µM ([1]; read-out: % decrease in Macrophage IL-6 Secretion) of no less than 30% and an inhibition at 10 µM ([1]; read-out: % decrease in Macrophage TNFα Secretion) of no less than 30%. It also gave an activation at 10 µM (HepG2 cells) greater than 5%, an inhibition at 10 µM ([2]; read-out: Decreased ROS by at least 10%) of no less than 10% and an inhibition at 10 µM ([2]; read-out: Decreased ROS by at least 30%) of no less than 30%. For the same compound, the percent decrease in viable Treg cells at 5 days, 50 µM [3] was no less than 30%.
